Entries after “also recorded” stand apart in the source; their conditions may differ. Ends that are not written are not given here.

One test has as its system C. jeikeium. The test is described as follows: Kill or inhibit growth/proliferation; morphology, biofilm and growth disruption (Tables 5, 6). Also: test concentration or dose not given here. The class given is cell-based, Corynebacterium jeikeium. The arrangement: key: A: Peptide aggregates; B: Less hyphal formation; Clumps; Diffuse clumps and small polyps; F: Diffuse growth; H: Thin; I: Growth inhibition; Microcolony formation; Rippled; Small polyps; Thick; W: Halo formation on top, microlonies on bottom.

Another test relates to E. faecalis. The description is as above. The class given is cell-based, Enterococcus faecalis. Set-up: key: A: Peptide aggregates; B: Less hyphal formation; Clumps; Diffuse clumps and small polyps; F: Diffuse growth; H: Thin; I: Growth inhibition; Microcolony formation; Rippled; Small polyps; Thick; W: Halo formation on top, microlonies on bottom.
For a further test, the system named is M. luteus. The test is described as above. The class given is cell-based, Micrococcus luteus. Set-up: key: A: Peptide aggregates; B: Less hyphal formation; Clumps; Diffuse clumps and small polyps; F: Diffuse growth; H: Thin; I: Growth inhibition; Microcolony formation; Rippled; Small polyps; Thick; W: Halo formation on top, microlonies on bottom. Also: test concentration or dose not given here.
A further test has as its system MRSA. The description is as above. The class given is cell-based, Methicillin-resistant Staphylococcus aureus. The arrangement: key: A: Peptide aggregates; B: Less hyphal formation; Clumps; Diffuse clumps and small polyps; F: Diffuse growth; H: Thin; I: Growth inhibition; Microcolony formation; Rippled; Small polyps; Thick; W: Halo formation on top, microlonies on bottom. Also: test concentration or dose not given here.

Another test deals with S. epidermidis. Described as above. The arrangement: key: A: Peptide aggregates; B: Less hyphal formation; Clumps; Diffuse clumps and small polyps; F: Diffuse growth; H: Thin; I: Growth inhibition; Microcolony formation; Rippled; Small polyps; Thick; W: Halo formation on top, microlonies on bottom. The class given is cell-based, Staphylococcus epidermidis.
For another test, the system named is S. pneumoniae. The test is described as above. Set-up: key: A: Peptide aggregates; B: Less hyphal formation; Clumps; Diffuse clumps and small polyps; F: Diffuse growth; H: Thin; I: Growth inhibition; Microcolony formation; Rippled; Small polyps; Thick; W: Halo formation on top, microlonies on bottom. The class given is cell-based, Streptococcus pneumoniae.
In another test the test system is C. jejuni. Described as above. It is filed as cell-based, Campylobacter jejuni. The arrangement: key: A: Peptide aggregates; B: Less hyphal formation; Clumps; Diffuse clumps and small polyps; F: Diffuse growth; H: Thin; I: Growth inhibition; Microcolony formation; Rippled; Small polyps; Thick; W: Halo formation on top, microlonies on bottom. Also: test concentration or dose not given here.
The next test relates to E. coli. The description is as above. It is filed as cell-based, Escherichia coli. The arrangement: key: A: Peptide aggregates; B: Less hyphal formation; Clumps; Diffuse clumps and small polyps; F: Diffuse growth; H: Thin; I: Growth inhibition; Microcolony formation; Rippled; Small polyps; Thick; W: Halo formation on top, microlonies on bottom.
Another test deals with C. albicans. Described as above. Set-up: key: A: Peptide aggregates; B: Less hyphal formation; Clumps; Diffuse clumps and small polyps; F: Diffuse growth; H: Thin; I: Growth inhibition; Microcolony formation; Rippled; Small polyps; Thick; W: Halo formation on top, microlonies on bottom. The class given is cell-based, Candida albicans.
A further test deals with microorganisms. Put plainly: Peptides having multiple activities (targeting/binding, antimicrobial, growth or phenotype altering). From the text:
In certain embodiments, peptides described herein can have multiple activities. Thus for example, a peptide can have both binding/targeting activity and antimicrobial activity. Such peptides can be used, e.g., in a chimeric construct, for any or all of these properties. Thus, for example, a peptide designated “B” in Table 8 can be used as a targeting peptide. If it is also designated G or M it can also be used for antimicrobial activity.

Test [1] has as its system microorganisms (e.g., bacteria, yeasts, fungi). Put plainly: Targeting peptide binding to target microorganisms (Table 3). Particulars: preferably 1x PBS; for Target(s): microorganism(s) the targeting peptide binds, peptide binding conducted in aqueous buffers varied by peptide solubility; for Target(s) (microorganisms bound by the targeting peptide): peptide binding in aqueous buffers varied by peptide solubility.

A further test relates to B. subtilis. The test is described as follows: Kill or inhibit growth/proliferation; morphology, biofilm and growth disruption (Tables 5, 6). Also: test concentration or dose not given here. It is filed as cell-based, Bacillus subtilis. Set-up: key: A: Peptide aggregates; B: Less hyphal formation; Clumps; Diffuse clumps and small polyps; F: Diffuse growth; H: Thin; I: Growth inhibition; Microcolony formation; Rippled; Small polyps; Thick; W: Halo formation on top, microlonies on bottom.
For Organism, effect (morphology, biofilm and growth disruption) in this document: test concentration or dose not given here.
For Organism, effect in this document: test concentration or dose not given here.

As to “PF-057: peptide having multiple activities (chain 1 TMIVISIPRFEEYMKARHKKWM; chain 2 TMIVISIPRFEEYMKARHKKWM; Peptide with targeting and/or antimicrobial activity)”, the “Organism, effect” value is given as “C. jeikeium (A)” with C. jeikeium; “E. faecalis (A)” with E. faecalis; “M. luteus (C)” in the test on M. luteus; “MRSA (M)” in the test with MRSA; “S. epidermidis (D)” in the test with S. epidermidis; “S. pneumoniae (R)” in the test with S. pneumoniae. In addition, the “Organism, effect” value in the test on C. jejuni is listed as “C. jejuni (D)”; in the test with E. coli, “E. coli (M)”; with C. albicans it was “C. albicans (A)”. Besides, in the test on microorganisms, the Activities result is recorded as “G B”.
Take “PF-426: peptide having multiple activities (MLQKYTQMISVTKCIITKNKKTQENVDAYN; Peptide with targeting and/or antimicrobial activity)”: the “Organism, effect” value with E. faecalis is on record as “E. faecalis (D)”; with MRSA, “MRSA (D)”; in the test on S. epidermidis, “S. epidermidis (D)”; in the test on S. pneumoniae, “S. pneumoniae (D)”; in the test on C. jejuni it was “C. jejuni (D)”; with E. coli it was “E. coli (C)”. For the same substance, the “Organism, effect” value in the test with C. albicans is on record as “C. albicans (A)”. The “Target(s)” value in test [1] is “S. epidermidis and E. coli and P. aeruginosa and C. albicans and MRSA and S. pneumoniae and E. faecalis and C. jeikeium”. Moreover, in the test on microorganisms, the Activities entry is listed as “G B”.
Consider “PF-526: peptide having multiple activities (chain 1 VLLLFIFQPFQKQLL-NH2; chain 2 VLLLFIFQPFQKQLL-NH2)”, for which the “Organism, effect” value in the test with MRSA is “MRSA (C)”; with S. epidermidis, “S. epidermidis (C)”; in the test on S. pneumoniae it was “S. pneumoniae (R)”; in the test on E. coli it was “E. coli (R)”; with C. albicans, “C. albicans (C)”. For the same substance, in the test with microorganisms, the Activities entry is given as “G B”.
Consider “PF-528: peptide having multiple activities (chain 1 LVDVVVLIRRHLPKSCS-NH2; chain 2 LVDVVVLIRRHLPKSCS-NH2; cysteine pairing not given here)”, for which the “Organism, effect” value in the test with MRSA is “MRSA (H)”; in the test with S. epidermidis, “S. epidermidis (H)”; with S. pneumoniae it was “S. pneumoniae (R)”; in the test on E. coli, “E. coli (H)”; with C. albicans, “C. albicans (C)”. Moreover, the “Target(s)” value in test [1] was “S. epidermidis and P. aeruginosa and C. albicans and MRSA and S. pneumoniae and E. faecalis”. The Activities result in the test on microorganisms is listed as “G B”.
As for “PF-617: peptide having multiple activities (PMNAAEPE; Peptide with targeting and/or antimicrobial activity)”, the figures for the “Organism, effect” value in the test with E. faecalis, in the test with S. pneumoniae and with C. albicans were “E. faecalis (H)”, “S. pneumoniae (I)” and “C. albicans (H)”, respectively. Also, in [1], the “Target(s) (microorganisms bound by the targeting peptide)” value was “P. aeruginosa; also recorded: C. albicans”. The Activities result in the test with microorganisms is on record as “G B”.
Consider “PF-627: peptide having multiple activities (INDLLSYFTLHEK; Peptide with targeting and/or antimicrobial activity)”, for which the “Organism, effect” value in the test on E. faecalis was “E. faecalis (H)”; with MRSA, “MRSA (R)”; in the test on S. epidermidis, “S. epidermidis (H)”; in the test on S. pneumoniae it was “S. pneumoniae (I)”; in the test on C. albicans it was “C. albicans (B)”. Further, the “Target(s) (microorganisms bound by the targeting peptide)” value in test [1] was “S. epidermidis and P. aeruginosa and MRSA and S. pneumoniae and E. faecalis and C. jeikeium”. The Activities result in the test on microorganisms is “G B”.
On to “PF-636: peptide having multiple activities (chain 1 LVRLA; chain 2 LVRLA; Peptide with targeting and/or antimicrobial activity)”, for which the “Organism, effect” value in the test on B. subtilis is given as “B. subtilis (H)”; in the test on E. faecalis, “E. faecalis (H)”; in the test on S. pneumoniae, “S. pneumoniae (H)”; in the test on C. albicans it was “C. albicans (B)”. Moreover, the “Target(s) (microorganisms bound by the targeting peptide)” value in test [1] is “S. epidermidis and C. albicans and MRSA and S. pneumoniae and E. faecalis”. For the same substance, in the test with microorganisms, the Activities entry was “G B”.
On to “PF-639: peptide having multiple activities (chain 1 QATQIKSWIDRLLVSED; chain 2 QATQIKSWIDRLLVSED; Peptide with targeting and/or antimicrobial activity)”, for which the “Organism, effect” value is reported as “E. faecalis (H)” in the test with E. faecalis, “MRSA (R)” with MRSA, “S. pneumoniae (I)” in the test with S. pneumoniae and “C. albicans (B)” in the test on C. albicans. In addition, the “Target(s) (microorganisms bound by the targeting peptide)” value in [1] was “S. pneumoniae; also recorded: C. jeikeium”. Further, in the test with microorganisms, the Activities result is reported as “G B”.
Regarding “PF-640: peptide having multiple activities (chain 1 MGDINRNF; chain 2 MGDINRNF; Peptide with targeting and/or antimicrobial activity)”, the figures for the “Organism, effect” value in the test on E. faecalis, in the test with S. pneumoniae and with C. albicans were “E. faecalis (H)”, “S. pneumoniae (I)” and “C. albicans (B)”, respectively. The “Target(s) (microorganisms bound by the targeting peptide)” value in [1] is on record as “C. albicans”. For the same substance, in the test on microorganisms, the Activities result is listed as “G B”.
Consider “PF-654 (chain 1 LSGRLAGRR; chain 2 LSGRLAGRR; Peptide with targeting and/or antimicrobial activity)”, for which the “Organism, effect (morphology, biofilm and growth disruption)” value with MRSA is recorded as “MRSA (R)”; with S. pneumoniae it was “S. pneumoniae (A)”; in the test on C. albicans, “C. albicans (B)”. Also, the “Target(s) (microorganisms bound by the targeting peptide)” value in [1] is “Mycobacteria spp”.
With “PF-684 (chain 1 RKLSLASGFALWRRSLV; chain 2 RKLSLASGFALWRRSLV; Peptide with targeting and/or antimicrobial activity)”, the “Organism, effect (morphology, biofilm and growth disruption)” value is on record as “E. faecalis (A)” with E. faecalis, “S. pneumoniae (C)” in the test on S. pneumoniae and “C. albicans (B)” in the test with C. albicans. Moreover, in [1], the “Target(s) (microorganisms bound by the targeting peptide)” value is listed as “Mycobacteria spp”.
The like results for “PF-698 (chain 1 SSGRAGVKCRRPTGR; chain 2 SSGRAGVKCRRPTGR; Peptide with targeting and/or antimicrobial activity)” were, in that order, “E. faecalis (A)”, “S. pneumoniae (A)”, “C. albicans (H)” and “Mycobacteria spp”.

For the origin of these results see patent publication US20110039762A1, “TARGETED ANTIMICROBIAL MOIETIES” (C3 JIAN, INC., priority 2009, published 2011).
